Measurements from patent US6808877B2, “Ligands for FPR class receptors that induce a host immune response to a pathogen or inhibit HIV infection” (priority 2000, dated 2004).
Entries after “also recorded” stand apart in the source; their conditions may differ.

Key:
[1] = test system: neutrophils; experiment: Ca2+ mobilization in neutrophils (Fura-2); assay type: cell-based, human
Procedure: Calcium mobilization was measured by incubating 2×10^7/ml cells in loading medium (DMEM, 10% FBS) with 5 μM Fura-2 AM (Molecular Probes, Eugene, Oreg.) for 30 min at room temperature in the dark. The dye-loaded cells were washed 3 times with loading medium and resuspended in saline buffer [138 mM NaCl, 6 mM KCl, 1 mM CaCl2, 10 mM HEPES (pH 7.4), 5 mM Glucose, 0.1% BSA] at a concentration of 1×10^6/ml. The cells were then transferred into quartz cuvettes (2 ml) which were placed in a luminescence spectrometer (LS-50B, Perkin-Elmer, Beaconsfield, England). Stimulants at different concentrations were added in a volume of 20 μl to each cuvette at the indicated time points. The ratio of fluorescence at 340 and 380 nm wavelength was calculated using a FL WinLab program (Perkin-Elmer).
Calcium mobilization was assayed by incubating 2×10^7/ml of monocytes, neutrophils, FPRL1 or FPR transfectants in loading buffer containing 138 mM NaCl, 6 mM KCl, 1 mM CaCl2, 10 mM HEPES (pH 7.4), 5 mM glucose, 0.1% BSA with 5 μM Fura-2 (Sigma) at 37° C. for 30 min. The dye-loaded cells were washed and resuspended in fresh loading buffer. The cells were then transferred into quartz cuvettes (10^6 cells in 2 ml) which were placed in a luminescence spectrometer LS50 B (Perkin-Elmer Limited, Beaconsfield, England). Stimulants at different concentrations were added in a volume of 20 μl to the cuvettes at indicated time points. The ratio of fluorescence at 340 and 380 nm wavelength was calculated using the FL WinLab program (Perkin-Elmer).

[2] = test system: CCR5; experiment: CCR5 serine phosphorylation in monocytes (anti-phosphoserine IP, anti-CCR5 immunoblot); assay type: cell-based, human; conditions: human monocytes; for serine phosphorylation of CCR5: 37° C.
Procedure: Monocytes were isolated by counter-flow elutriation from the peripheral blood of normal donors (NIH Clinical Center, Transfusion Medicine Department, Bethesda, Md.) and enriched for mononuclear cells by using counter-flow elutriation. The purity of the cell preparations was examined by morphology after cytospin, and was >90%. The cells were stimulated with different concentrations of chemokines for indicated time periods at 37° C. and lysed for 20 min on ice with periodic mixing in lysis buffer (1% Triton X-100, 20 mM, Tris-HCl pH 8.0, 137 mM NaCl, 15% glycerol, 5 mM EDTA) containing phosphatase and protease inhibitors (1 mM phenylmethylsulfonyl fluoride, 5 μg/ml aprotinin, 5 μg/ml leupeptin, 1 mM sodium orthovanadate, 1 mM EGTA). Cell lysates were precleared with 30 µl of washed Protein-A sepherose beads (Pharmacia Biotech. Piscataway, N.J.), 1 μg of polyclonal anti-phospho-serine antibody (Zymed Laboratory Inc. South San Francisco, Calif.) was added to 200 μg cell lysates diluted with 2×immunoprecipitation (IP) buffer (1×buffer contains 1%Triton X-100, 10 mM Tris-HCl pH 7.4, 137 mM NaCl, 1 mM EDTA, 1 mM EGTA, 0.2 mM sodium orthovanadate, 0.2 mM PMSF, 0.5% NP-40). The reaction mixture was incubated at 4° C. overnight under constant rocking. The immune complex was captured by adding 50 μl of washed Protein-A sepharose beads (25 μl packed beads) and incubation of the reaction mixture at 4° C. for additional 2 hours. The beads were spun down (10 seconds at 14,000 rpm), the pellets were washed 3 times with ice-cold IP buffer, resuspended in 30 μl of 2×Laemmli sample buffer (126 mM Tris-HCl, 20% Glycerol, 4% SDS, 0.005% bromophenol blue with or without addition of 1% 2-mercaptoethanol, Novex, San Diego, Calif.) and boiled for 5 min to elute the immune complex. After electrophoresis on 4-12% SDS-PAGE precast gel (Novex), the proteins were transferred to Immobilon P membranes (Millipore, Bedford, Mass.). The membranes were blocked in freshly prepared PBS containing 3% dry milk 2 h, then were incubated with 1 μg/ml of polyclonal anti-CCR5 antibody (Millenium Biotechnology, Ramona, Calif.) overnight at 4° C. followed by washing 3 times with PBS containing 0.05% Tween 20. The membranes were incubated with a horse radish-peroxidase conjugated goat anti-rabbit IgG (1:5000) (Sigma, St. Louis, Mo.) in PBS containing 3% dry milk for 1 hour at room temperature with agitation. After washing 3 times with PBS-0.05% Tween 20, the membranes were incubated with Super Signal Chemiluminescent Substrate Stable Peroxide Solution (Pierce, Rockford, Ill.) for 1 min, and exposed to BIOMAX-MR film (Eastman Kodak Company, Rochester, N.Y.).
Monocytes stimulated with different concentrations of stimulants for indicated time periods at 37° C. were lysed for 20 min on ice with periodic mixing in lysis buffer [1% Triton X-100, 20 mM Tris-HCl (pH 8.0), 137 mM NaCl, 15% glycerol, 5 mM EDTA] containing phosphatase and protease inhibitors (1 mM phenylmethylsulfonyl fluoride, 5 μg/ml aprotinin, 5 μg/ml leupeptin, 1 mM sodium orthovanadate, 1 mM EGTA). Cell lysates were precleaned with 30 μl of washed Protein A Sepharose beads (15 μl packed beads) at 4° C. for 1 hour and 1 μg of polyclonal anti-phosphoserine antibody was added to 200 μg cell lysates diluted with 2×immunoprecipitation (IP) buffer [1×: 1% Triton X-100, 10 mM Tris-HCl (pH 7.4), 137 mM NaCl, 1 mM EDTA, 1 mM EGTA, 0.2 mM […], 0.2 mM PMSF, 0.5% NP-40]. The reaction mixture was incubated at 4° C. overnight under constant rocking. The immunecomplex was captured by adding 50 μl of washed Protein A sepharose beads (25 μl packed beads) and incubating the reaction mixture at 4° C. for an additional 2 hours. […]

[3] = test system: T lymphocytes; experiment: T lymphocyte chemotaxis; assay type: cell-based, human
[4] = test system: monocyte tropic strains of HIV-1; assay type: cell-based; conditions: FPR-transfected HOS cells
[5] = test system: CCR5; experiment: Surface expression of CCR5 on monocytes by flow cytometry; assay type: cell-based, human; conditions: FITC-anti-CCR5 2D7
Procedure: The change of surface expression of CCR5 on monocytes was monitored by FACS analyses (courtesy of L. […] The cells were then washed twice with DPBS containing 2% BSA and fixed with 1% Paraformaldehyde (Sigma). The fluorescence was measured by flow cytometer (Becton Dickinson, San Jose, Calif.). Results are presented as the percentage of cells stained with anti-CCR5 antibody.

[6] = test system: HIV-1BAL-env; experiment: HIV-1 env fusion with human blood monocytes; assay type: cell-based
[7] = test system: HIV-1BAL-env; assay type: cell-based; conditions: HOS/CD4/CCR5 cells co-expressing FPR

| Molecule | Ca2+ mobilization [1] | time of maximal CCR5 phosphorylation [2] | serine phosphorylation of CCR5 [2] | chemotactic activity [3] | fusion and infection, syncytia formation and p24 production [4] | response to W peptide (Ca2+ flux) ([1]; concentrations in the micromolar range) | signaling of V3 peptide on cross-desensitization ([1]; high concentration of fMLP (1 μM), V3 1.5 μM) | effect on W peptide-induced Ca2+ flux ([1]; low concentrations (nM range)) | time to increase in CCR5 phosphorylation after stimulation [2] | expression of CCR5 on the cell surface [5] | HIV-1 env fusion [6] | HIV-1BAL-env-mediated fusion [7] |
| --- | --- | --- | --- | --- | --- | --- | --- | --- | --- | --- | --- | --- |
| TRPNYNKRKRIHIGPGRAFYTTKNIIGTIRQAH-NH2 [V3 peptide] | mobilized Ca^2+ | 15 min | induced significant serine phosphorylation of CCR5 | weak chemoattractant |  |  |  |  |  |  |  |  |
| CSCC[C@H](NC=O)C(=O)N[C@@H](CC(C)C)C(=O)N[C@@H](Cc1ccccc1)C(=O)O [fMLP, N-formyl-methionyl-leucyl-phenylalanine] |  |  | increased level of CCR5 phosphorylation; also recorded: induced CCR5 phosphorylation |  | significantly reduced the fusion and infection | significantly attenuated | attenuated | limited effect | ≤ 1 min | markedly downregulated | inhibition of HIV-1 env fusion with blood monocytes | markedly inhibited |
